Measured values from patent US20150299188A1, “HETEROCYCLIC COMPOUND” (priority 2012, published 2015).

tested on: FLAP (5-lipoxygenase activating protein); assay: In vitro binding test: displacement of [3H]-7-chloro-3-(5-((3-fluoropyridin-2-yl)methoxy)-2-methylphenyl)-3,4-dihydroquinazolin-2(1H)-one from Sf9 microsome fractions; parameters: species or system human and mouse; conditions: Sf9 microsome fractions expressing FLAP; 100% = radioligand binding with 10 μM sodium 3-(3-(tert-butylsulfanyl)-1-(4-chlorobenzyl)-5-isopropyl-1H-indol-2-yl)-2,2-dimethylpropanoate, 0% = DMSO; test compound concentration not given
Method in brief: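 Sf9 microsomes expressing human or mouse FLAP (2 μg/mL) preincubated with compound 10 min at room temperature, then 120 nM tritiated quinazolinone ligand added for 60 min; buffer 100 mM Tris-HCl pH 7.5 with NaCl, EDTA, DTT, glycerol, Tween20. Bound ligand filtered and counted by scintillation; 10 μM indole propanoate defines 100% inhibition, DMSO 0%.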

inhibitory rate (%)	Structure (SMILES)
96%	Cc1cc2c(cc1N1Cc3ccc(C(=O)N4CCOCC4)cc3NC1=O)OC(c1ncccc1F)CC2 (centres unmarked) [Example 183, 3-(2-(3-fluoropyridin-2-yl)-6-methyl-3,4-dihydro-2H-chromen-7-yl)-7-(morpholin-4-ylcarbonyl)-3,4-dihydroquinazolin-2(1H)-one]
97%	Cc1cc2c(cc1N1Cc3ccc(C(=O)NC4CC4)cc3NC1=O)OC(c1ncccc1F)CC2 (centres unmarked) [Example 184, N-cyclopropyl-3-(2-(3-fluoropyridin-2-yl)-6-methyl-3,4-dihydro-2H-chromen-7-yl)-2-oxo-1,2,3,4-tetrahydroquinazoline-7-carboxamide]
98%	Cc1cc2c(cc1N1Cc3ccc(CO)cc3NC1=O)OC(c1ncccc1F)CC2 (centres unmarked) [Example 185, 3-(2-(3-fluoropyridin-2-yl)-6-methyl-3,4-dihydro-2H-chromen-7-yl)-7-(hydroxymethyl)-3,4-dihydroquinazolin-2(1H)-one]
62%	Cc1ccc(OCc2c(F)cccc2F)cc1N1Cc2cc(CO)ccc2NC1=O [Example 186, 3-(5-((2,6-difluorobenzyl)oxy)-2-methylphenyl)-6-(hydroxymethyl)-3,4-dihydroquinazolin-2(1H)-one]
103%	Cc1ccc(OCc2ncccc2Cl)cc1N1Cc2ccccc2NC1=O [Example 187, 3-(5-((3-chloropyridin-2-yl)methoxy)-2-methylphenyl)-3,4-dihydroquinazolin-2(1H)-one]
83%	COC(=O)c1ccc(OCc2c(F)cccc2F)cc1N1Cc2ccccc2NC1=O [Example 188, methyl 4-((2,6-difluorobenzyl)oxy)-2-(2-oxo-1,4-dihydroquinazolin-3(2H)-yl)benzoate]
55%	CC(C)(O)CNC(=O)c1ccc(OCc2c(F)cccc2F)cc1N1Cc2ccccc2NC1=O [Example 190, 4-((2,6-difluorobenzyl)oxy)-N-(2-hydroxy-2-methylpropyl)-2-(2-oxo-1,4-dihydroquinazolin-3(2H)-yl)benzamide]
51%	O=C(NCc1ccccn1)c1ccc(OCc2c(F)cccc2F)cc1N1Cc2ccccc2NC1=O [Example 192, 4-((2,6-difluorobenzyl)oxy)-2-(2-oxo-1,4-dihydroquinazolin-3(2H)-yl)-N-(pyridin-2-ylmethyl)benzamide]
97%	COCc1ccc2c(c1)NC(=O)N(c1cc(OCc3c(F)cccc3F)ccc1C)C2 [Example 193, 3-(5-((2,6-difluorobenzyl)oxy)-2-methylphenyl)-7-(methoxymethyl)-3,4-dihydroquinazolin-2(1H)-one]
71%	Cc1ccc(OCc2c(F)cccc2F)cc1N1Cc2cccc(CO)c2NC1=O [Example 194, 3-(5-((2,6-difluorobenzyl)oxy)-2-methylphenyl)-8-(hydroxymethyl)-3,4-dihydroquinazolin-2(1H)-one]
97%	Cc1ccc(OCc2c(F)cccc2F)cc1N1Cc2c(CO)cccc2NC1=O [Example 195, 3-(5-((2,6-difluorobenzyl)oxy)-2-methylphenyl)-5-(hydroxymethyl)-3,4-dihydroquinazolin-2(1H)-one]
97%	Cc1ccc(OCc2c(F)cccc2F)cc1N1Cc2ccc(C(N)=O)cc2NC1=O [Example 196, 3-(5-((2,6-difluorobenzyl)oxy)-2-methylphenyl)-2-oxo-1,2,3,4-tetrahydroquinazoline-7-carboxamide]
101%	Cc1ccc(OCc2c(F)cccc2F)cc1N1Cc2ccc(C(=O)NCCO)cc2NC1=O [Example 197, 3-(5-((2,6-difluorobenzyl)oxy)-2-methylphenyl)-N-(2-hydroxyethyl)-2-oxo-1,2,3,4-tetrahydroquinazoline-7-carboxamide]
94%	COC(=O)c1ccc2c(c1)NC(=O)N(c1cc(OCc3cccc(F)c3F)ccc1C)C2 [Example 198, methyl 3-(5-((2,3-difluorobenzyl)oxy)-2-methylphenyl)-2-oxo-1,2,3,4-tetrahydroquinazoline-7-carboxylate]
